Species on record: Rattus norvegicus
Experiment: DrugMatrix - Regimen: Daily Repeat
Assay type: toxicity, organism-based, Sprague-Dawley
Parameters: regimen Daily Repeat, gender Male, age 6-8 weeks
Conditions: in vivo, po, route oral GAVAGE, […]; for ABSOLUTE BASOPHIL / ABSOLUTE EOSINOPHIL / ABSOLUTE LYMPHOCYTE / ABSOLUTE MONOCYTE / ABSOLUTE SEGMENTED NEUTROPHIL / BASOPHIL / EOSINOPHIL / ERYTHROCYTE COUNT / HEMATOCRIT / HEMOGLOBIN / LEUKOCYTE COUNT / LYMPHOCYTE / MEAN CORPUSCULAR HEMOGLOBIN / MEAN CORPUSCULAR HEMOGLOBIN CONCENTRATION / MEAN CORPUSCULAR VOLUME / MONOCYTE / NEUTROPHIL / NUCLEATED RED BLOOD CELLS / PLATELET COUNT: tissue Blood; for ALANINE AMINOTRANSFERASE / ALBUMIN / ALKALINE PHOSPHATASE / ASPARTATE AMINOTRANSFERASE / BLOOD UREA NITROGEN / CARBON DIOXIDE / CHLORIDE / CHOLESTEROL / CREATINE PHOSPHOKINASE / CREATININE / GLUCOSE / LACTATE DEHYDROGENASE / LIPASE / PHOSPHORUS / POTASSIUM / SODIUM / TOTAL BILIRUBIN / TOTAL PROTEIN / URIC ACID: tissue Plasma
[1] = 5 mg/kg, 120 h, dose level Low, time 5 day
[2] = 13 mg/kg, 72 h, dose level High, time 3 day
[3] = 13 mg/kg, 120 h, dose level High, time 5 day

O=c1oc2ccccc2c(O)c1Cc1c(O)c2ccccc2oc1=O [DICUMAROL]
ABSOLUTE BASOPHIL [1]: 0 CELLS/uL
ABSOLUTE EOSINOPHIL [1]: 23.33 CELLS/uL
ABSOLUTE LYMPHOCYTE [1]: 6534.33 CELLS/uL
ABSOLUTE MONOCYTE [1]: 0 CELLS/uL
ABSOLUTE SEGMENTED NEUTROPHIL [1]: 809 CELLS/uL
BASOPHIL [1]: 0%
EOSINOPHIL [1]: 0.33%
ERYTHROCYTE COUNT [1]: 5.38 x10E6/uL
HEMATOCRIT [1]: 33.9%
HEMOGLOBIN [1]: 13.03 G/DL
LEUKOCYTE COUNT [1]: 7.37 x10E3/uL
LYMPHOCYTE [1]: 88.67%
MEAN CORPUSCULAR HEMOGLOBIN [1]: 24.27 pg
MEAN CORPUSCULAR HEMOGLOBIN CONCENTRATION [1]: 38.47 G/DL
MEAN CORPUSCULAR VOLUME [1]: 63 fL
MONOCYTE [1]: 0%
NEUTROPHIL [1]: 11%
NUCLEATED RED BLOOD CELLS [1]: 0 /100WBC
PLATELET COUNT [1]: 1062 x10E3/uL
ALANINE AMINOTRANSFERASE [1]: 70.33 u/L
ALBUMIN [1]: 4.17 G/DL
ALKALINE PHOSPHATASE [1]: 492.33 u/L
ASPARTATE AMINOTRANSFERASE [1]: 90.67 u/L
BLOOD UREA NITROGEN [1]: 13.67 mg/dL
CARBON DIOXIDE [1]: 31.67 mmol/L
CHLORIDE [1]: 100 MEQ/L
CHOLESTEROL [1]: 66.67 mg/dL
CREATINE PHOSPHOKINASE [1]: 491.67 u/L
CREATININE [1]: 0.15 mg/dL
GLUCOSE [1]: 160.33 mg/dL
LACTATE DEHYDROGENASE [1]: 134.33 u/L
LIPASE [1]: 9.33 u/L
PHOSPHORUS [1]: 9.47 mg/dL
POTASSIUM [1]: 5.06 MEQ/L
SODIUM [1]: 142.1 MEQ/L
TOTAL BILIRUBIN [1]: 0.17 mg/dL
TOTAL PROTEIN [1]: 6.07 G/DL
URIC ACID [1]: 0.43 mg/dL
ABSOLUTE BASOPHIL [2]: 0 CELLS/uL
ABSOLUTE EOSINOPHIL [2]: 43.33 CELLS/uL
ABSOLUTE LYMPHOCYTE [2]: 9740.67 CELLS/uL
ABSOLUTE MONOCYTE [2]: 39.67 CELLS/uL
ABSOLUTE SEGMENTED NEUTROPHIL [2]: 443 CELLS/uL
BASOPHIL [2]: 0%
EOSINOPHIL [2]: 0.33%
ERYTHROCYTE COUNT [2]: 5.24 x10E6/uL
HEMATOCRIT [2]: 32.97%
HEMOGLOBIN [2]: 12.9 G/DL
LEUKOCYTE COUNT [2]: 10.27 x10E3/uL
LYMPHOCYTE [2]: 95%
MEAN CORPUSCULAR HEMOGLOBIN [2]: 24.7 pg
MEAN CORPUSCULAR HEMOGLOBIN CONCENTRATION [2]: 39.13 G/DL
MEAN CORPUSCULAR VOLUME [2]: 63.17 fL
MONOCYTE [2]: 0.33%
NEUTROPHIL [2]: 4.33%
NUCLEATED RED BLOOD CELLS [2]: 0 /100WBC
PLATELET COUNT [2]: 923.67 x10E3/uL
ALANINE AMINOTRANSFERASE [2]: 65 u/L
ALBUMIN [2]: 3.83 G/DL
ALKALINE PHOSPHATASE [2]: 374.33 u/L
ASPARTATE AMINOTRANSFERASE [2]: 87.33 u/L
BLOOD UREA NITROGEN [2]: 11 mg/dL
CARBON DIOXIDE [2]: 35.33 mmol/L
CHLORIDE [2]: 98 MEQ/L
CHOLESTEROL [2]: 72 mg/dL
CREATINE PHOSPHOKINASE [2]: 494.33 u/L
CREATININE [2]: 0.14 mg/dL
GLUCOSE [2]: 143.67 mg/dL
LACTATE DEHYDROGENASE [2]: 159.67 u/L
LIPASE [2]: 9.33 u/L
PHOSPHORUS [2]: 11.1 mg/dL
POTASSIUM [2]: 6.17 MEQ/L
SODIUM [2]: 142.53 MEQ/L
TOTAL BILIRUBIN [2]: 0.17 mg/dL
TOTAL PROTEIN [2]: 5.83 G/DL
URIC ACID [2]: 0.5 mg/dL
ABSOLUTE BASOPHIL [3]: 0 CELLS/uL
ABSOLUTE EOSINOPHIL [3]: 0 CELLS/uL
ABSOLUTE LYMPHOCYTE [3]: 5152 CELLS/uL
ABSOLUTE MONOCYTE [3]: 45 CELLS/uL
ABSOLUTE SEGMENTED NEUTROPHIL [3]: 403 CELLS/uL
BASOPHIL [3]: 0%
EOSINOPHIL [3]: 0%
ERYTHROCYTE COUNT [3]: 5.48 x10E6/uL
HEMATOCRIT [3]: 33.3%
HEMOGLOBIN [3]: 12.65 G/DL
LEUKOCYTE COUNT [3]: 5.6 x10E3/uL
LYMPHOCYTE [3]: 92%
MEAN CORPUSCULAR HEMOGLOBIN [3]: 23.1 pg
MEAN CORPUSCULAR HEMOGLOBIN CONCENTRATION [3]: 38 G/DL
MEAN CORPUSCULAR VOLUME [3]: 60.75 fL
MONOCYTE [3]: 1%
NEUTROPHIL [3]: 7%
NUCLEATED RED BLOOD CELLS [3]: 1 /100WBC
PLATELET COUNT [3]: 1032 x10E3/uL
ALANINE AMINOTRANSFERASE [3]: 67.5 u/L
ALBUMIN [3]: 3.85 G/DL
ALKALINE PHOSPHATASE [3]: 329.5 u/L
ASPARTATE AMINOTRANSFERASE [3]: 96 u/L
BLOOD UREA NITROGEN [3]: 13 mg/dL
CARBON DIOXIDE [3]: 32.5 mmol/L
CHLORIDE [3]: 100 MEQ/L
CHOLESTEROL [3]: 64 mg/dL
CREATINE PHOSPHOKINASE [3]: 628 u/L
CREATININE [3]: 0.18 mg/dL
GLUCOSE [3]: 150.5 mg/dL
LACTATE DEHYDROGENASE [3]: 133 u/L
LIPASE [3]: 11 u/L
PHOSPHORUS [3]: 9.75 mg/dL
POTASSIUM [3]: 5.09 MEQ/L
SODIUM [3]: 145.4 MEQ/L
TOTAL BILIRUBIN [3]: 0.15 mg/dL
TOTAL PROTEIN [3]: 6 G/DL
URIC ACID [3]: 0.45 mg/dL

— ChEMBL document CHEMBL3885881, “DrugMatrix”
